# Laboratory results: patent US7183314B1, “Compound for treatment of anxiety and methods of preparation and use thereof” (Naturon Limited, priority 2000, dated 2007)
# Experiments:
# Male ICR mice [1] = assay: Locomotor activity test; format: in vivo; conditions: oral; for Locomotor Activity Score: 5 minute period
# Description: (§1) Male ICR mice weighing 18–23 g were used. They were housed in groups of four or five with free access to food and water and maintained on a 11 hour light: 13 hour dark cycle. All of the experimental groups, except acute lethal activity test (10 mice of either sex) have 16 animals per group.
# (§2) For the chronic test, mice received 5 days pretreatment before the test. Flumazenil (Ro15-1788) was administrated intraperitoneally (IP) 15 minutes before testing in an injection volume of 12.5 ml/kg.
# A ZIL-2 apparatus (Beijing Institute of Materia Medica) with dimensions 60×60×12 cm was used. It consists of four circular plastic boxes with diameter 25 cm and each has 6 equally distributed infrared photocells. The locomotor activity was counted automatically during a 5 minute period of test. An increase in the number of transitions reflects an increased locomotor activity.
# Male ICR mice [2] = assay: Holeboard test; format: in vivo; conditions: oral; for Head-dip Number / Head-dip Time: 5 minutes
# Description: as §1, §2
# The holeboard was a wooden box, 60×60×30 cm, with four holes of 3 cm diameter equally spaced in the floor. Mice were placed in the center of the holeboard and the number of head-dips, the time spent head-dipping were counted during 5 minutes (File, S. E., and Pellow, S., Br J Pharmacol 86: 729–735, 1985). Mice were allocated to different test groups randomly, and tested in an randomized order of drug treatment between 8 A.M. and 12 P.M. in a room lit by dim light. After each trial, the floor of the apparatus was wiped and dried thoroughly with tissue to remove traces of the previous path. An increase in the number and time spent head-dipping in this test are indicative of a greater exploratory activity. Conversely, a decrease in any of these parameters compared to controls is symptomatic of sedated behavior (Nolan, N. A., and Parkes, M. W., Psychopharmacol 29: 277–288, 1973; File, S. E., and Wardill, A. G., Psychopharmacol 44: 53–59, 1975; File, S. E., and Pellow, S., Psychopharmacol 88:1–11, 1986).
# Male ICR mice [3] = assay: Elevated plus-maze; format: in vivo; conditions: for Total (total number of arm entries): 5 minute test
# Description: as §1, §2
# The elevated plus-maze was made of wood and consisted of two open arms (25×5 cm) and two opposite arms enclosed by 20 cm high walls. The arms extended from a central platform (5×5 cm). The plus-maze was elevated to a height of 40 cm. The maze was put inside a box 30×30×50 cm. […] The number of entries into and the time spent on the open and closed arms were counted. The total number of arm entries provided a measure of general activity, and anxiety reduces the number of such entries. At the end of the test, the number of entries into open arms was expressed as a percentage of the total number of arm entries. The time spent on the open arms was also expressed as a percentage of time spent on both the open and closed arms. Testing took place between 8 A.M. and 12 P.M. Mice were randomly allocated to different test groups, and tested in a randomized order of drug treatment in a room lit by dim light. After each trial, the floor of the apparatus was wiped and dried thoroughly with tissue to remove traces of the previous path.
# [4] = Acute lethal activity test; conditions: both sexes, ICR, mouse, in vivo; in mice
# Description: as §1
# [5] = test system: BZD-S of the GABAA-receptor; conditions: as variously reported; cited from earlier work
# Male ICR mice [6] = assay: Horizontal wire test; format: in vivo; conditions: up to 30 mg/kg, 1 hour after oral administration, FIG. 5
# Description: as §1, §2
# Mice were lifted by the tail and allowed to grasp a horizontally strung wire (1 mm diameter, 15 cm long and placed 20 cm above the table) with their forepaws and released (Bonetti, E. P., et al., Psychopharmacol 78: 8–18, 1982). […] After two trials performed at 5 minute intervals, the test took place. A myorelaxant drug impairs the capacity of the mice to grasp the wire. Such muscle relaxation is commonly associated with sedation.
# [7] = Acute, 1 hour before test, 1 mg/kg
# [8] = Chronic (5 days pretreatment), 1 mg/kg
# [9] = Acute, 1 hour before test, 3.75 mg/kg
# [10] = Acute, 1 hour before test, 7.5 mg/kg
# [11] = Acute, 1 hour before test, 15 mg/kg
# [12] = Acute, 1 hour before test, 30 mg/kg
# [13] = Chronic (5 days pretreatment), 3.75 mg/kg
# [14] = Chronic (5 days pretreatment), 7.5 mg/kg
# [15] = Chronic (5 days pretreatment), 15 mg/kg
# [16] = Chronic (5 days pretreatment), 30 mg/kg
smiles,measurement,setting,value
"CN1C(=O)CN=C(c2ccccc2)c2cc(Cl)ccc21 [diazepam, reference compound]",Locomotor Activity Score,Male ICR mice [1]; [7],225.29 ± 15.80
same,Locomotor Activity Score,Male ICR mice [1]; [8],195.25 ± 13.03
same,Head-dip Number,Male ICR mice [2]; [7],28.88 ± 2.16
same,Head-dip Time,Male ICR mice [2]; [7],37.00 ± 0.79
same,Head-dip Number,Male ICR mice [2]; [8],31.94 ± 3.57
same,Head-dip Time,Male ICR mice [2]; [8],36.50 ± 3.59
same,Total (total number of arm entries),"Male ICR mice [3]; Acute, oral, 1 hour before test, 1 mg/kg",45.13 ± 2.31
same,Total (total number of arm entries),"Male ICR mice [3]; Chronic (5 days pretreatment), oral, 1 mg/kg",29.38 ± 2.67
COc1c(O)cc(O)c2c(=O)cc(-c3ccccc3)oc12 [wogonin],Locomotor Activity Score,Male ICR mice [1]; [9],189.44 ± 6.54
same,Locomotor Activity Score,Male ICR mice [1]; [10],205.63 ± 13.11
same,Locomotor Activity Score,Male ICR mice [1]; [11],207.38 ± 10.12
same,Locomotor Activity Score,Male ICR mice [1]; [12],193.50 ± 6.39
same,Locomotor Activity Score,Male ICR mice [1]; [13],149.75 ± 6.55
same,Locomotor Activity Score,Male ICR mice [1]; [14],170.56 ± 12.00
same,Locomotor Activity Score,Male ICR mice [1]; [15],172.75 ± 6.25
same,Locomotor Activity Score,Male ICR mice [1]; [16],184.56 ± 7.88
same,Sedative effects (change in motor activity),"Male ICR mice [1]; up to 30 mg/kg body weight, mice",did not induce any sedative effects
same,LD50,[4],~4000 mg/kg
same,Binding affinity to the BZD-S of the GABAA-receptor,[5],weak or moderate
same,Head-dip Number,Male ICR mice [2]; [9],23.88 ± 1.08
same,Head-dip Time,Male ICR mice [2]; [9],27.00 ± 1.10
same,Head-dip Number,Male ICR mice [2]; [10],31.06 ± 1.88
same,Head-dip Time,Male ICR mice [2]; [10],36.38 ± 1.93
same,Head-dip Number,Male ICR mice [2]; [11],37.00 ± 1.94
same,Head-dip Time,Male ICR mice [2]; [11],42.25 ± 2.54
same,Head-dip Number,Male ICR mice [2]; [12],42.75 ± 3.58
same,Head-dip Time,Male ICR mice [2]; [12],48.19 ± 3.92
same,Head-dip Number,Male ICR mice [2]; [13],23.88 ± 1.86
same,Head-dip Time,Male ICR mice [2]; [13],26.88 ± 1.95
same,Head-dip Number,Male ICR mice [2]; [14],32.31 ± 1.80
same,Head-dip Time,Male ICR mice [2]; [14],38.00 ± 0.79
same,Head-dip Number,Male ICR mice [2]; [15],32.81 ± 2.27
same,Head-dip Time,Male ICR mice [2]; [15],37.38 ± 2.32
same,Head-dip Number,Male ICR mice [2]; [16],30.13 ± 1.59
same,Head-dip Time,Male ICR mice [2]; [16],35.88 ± 1.81
same,Sedative effect (holeboard),"Male ICR mice [2]; up to 30 mg/kg, mice",did not induce a significant sedative effect
same,Myorelaxant effects,Male ICR mice [6],devoid of myorelaxant effects
same,"Anxiolytic effects: open arm entries (acute), % time spent in open arms (acute), % open arm entries (chronic)","Male ICR mice [3]; 7.5, 15 or 30 mg/kg, oral, mice, FIG. 3",significant anxiolytic effects
same,Total (total number of arm entries),"Male ICR mice [3]; Acute, oral, 1 hour before test, 3.75 mg/kg",34.56 ± 0.97
same,Total (total number of arm entries),"Male ICR mice [3]; Acute, oral, 1 hour before test, 7.5 mg/kg",45.56 ± 1.71
same,Total (total number of arm entries),"Male ICR mice [3]; Acute, oral, 1 hour before test, 15 mg/kg",43.50 ± 1.90
same,Total (total number of arm entries),"Male ICR mice [3]; Acute, oral, 1 hour before test, 30 mg/kg",47.00 ± 1.93
same,Total (total number of arm entries),"Male ICR mice [3]; Chronic (5 days pretreatment), oral, 3.75 mg/kg",27.56 ± 1.90
same,Total (total number of arm entries),"Male ICR mice [3]; Chronic (5 days pretreatment), oral, 7.5 mg/kg",31.75 ± 2.07
same,Total (total number of arm entries),"Male ICR mice [3]; Chronic (5 days pretreatment), oral, 15 mg/kg",31.56 ± 2.13
same,Total (total number of arm entries),"Male ICR mice [3]; Chronic (5 days pretreatment), oral, 30 mg/kg",31.31 ± 1.77
same,Anxiolytic effect of wogonin after treatment with Flumazenil Ro15-1788,"Male ICR mice [3]; Flumazenil Ro15-1788 2.5 mg/kg IP 15 minutes before testing, mice, FIG. 4",completely abolished
